Measured values from patent publication US20250320140A1, “USE OF MEDIUM CHAIN PERACIDS FOR BIOFILM INHIBITION IN INDUSTRIAL RECIRCULATING WATER SYSTEMS” (ECOLAB USA INC., priority 2017, published 2025).

Assay: Solubility of sulfonated peracids at pH 4
Assay type: physicochemical
Conditions: pH of 4

- solubility: about 1.3%
SMILES: O=C(CCCCCCCCCCS(=O)(=O)O)OO [11-sulfoundecane peroxoic acid]
